B1: interferon-gamma (protein, UniProt P01579 24-161, looked up)
Interferon gamma: QDPYVKEAENLKKYFNAGHSDVADNGTLFLGILKNWKEESDRKIMQSQIVSFYFKLFKNFKDDQSIQKSVETIKEDMNVKFFNSNKKKRDDFEKLTNYSVTDLNVQRKAIHELIQVMAELSPAAKTGKRKRSQMLFRG
notes: interferon-gamma (Sigma Aldrich) used as stimulus on macrophages

Columns and labels:
[1] = test system: CEL; assay: CEL expression at the protein level in treated macrophages (Western blot); type: cell-based, human; conditions: monocyte-derived macrophages cultured for 7 days, treated for 24 hours; LPS 1 μg/ml, IFN-γ 200 U/ml, oxLDL 50 μg protein/ml; cells from four donors; FIG. 4B
Description: Macrophage cell culture. Mononuclear cells were isolated through a Ficoll-Hypaque discontinuous gradient (Boyum et al. 1976) from buffy coats obtained from the local blood bank (Sahlgrenska University Hospital, Göteborg, Sweden). The cells were resuspended in RPMI 1640 medium (PM Laboratories GmbH, Pasching, Austria) supplemented with 2 mmol/l glutamine, 2 mmol/l nonessential amino acids, 100 U/ml penicillin, 100 μg/ml streptomycin, and 20 mmol/l sodium pyruvate. Monocytes were obtained by allowing cells to adhere to plastic for 60 min at 37° C. Non-adhered cells were removed by washing with PBS and the adhered monocytes were used immediately or after 4 hours for experiments or left to differentiate into macrophages in supplemented RPMI1640 containing 20% heat-inactivated human serum for up to 9 days. Macrophages were then approximately 95% pure, as judged by flow cytometry. […] The viability of cells was >95% in all incubations, as determined by Trypan blue exclusion.
Exposure of macrophages to oxidatively modified LDL. […] Protein concentration of lipoproteins was determined with the BioRad protein assay using γ-globulin as standard.
Western blot analysis. […] The primary antibodies were detected with POD-conjugated secondary IgG and ECL™ Western Blotting Detection Reagents (Amersham Biosciences), visualized on ECL™ films (Amersham Biosciences).

[2] = test system: CEL; assay: CEL expression at the mRNA level in treated macrophages (RT-PCR); type: cell-based, human; conditions: monocyte-derived macrophages cultured for 7 days, treated for 24 hours; LPS 1 μg/ml, IFN-γ 200 U/ml, oxLDL 50 μg protein/ml; cells from four donors; FIG. 4C
Description: Macrophage cell culture. Mononuclear cells were isolated through a Ficoll-Hypaque discontinuous gradient (Boyum et al. 1976) from buffy coats obtained from the local blood bank (Sahlgrenska University Hospital, Göteborg, Sweden). The cells were resuspended in RPMI 1640 medium (PM Laboratories GmbH, Pasching, Austria) supplemented with 2 mmol/l glutamine, 2 mmol/l nonessential amino acids, 100 U/ml penicillin, 100 μg/ml streptomycin, and 20 mmol/l sodium pyruvate. Monocytes were obtained by allowing cells to adhere to plastic for 60 min at 37° C. Non-adhered cells were removed by washing with PBS and the adhered monocytes were used immediately or after 4 hours for experiments or left to differentiate into macrophages in supplemented RPMI1640 containing 20% heat-inactivated human serum for up to 9 days. Macrophages were then approximately 95% pure, as judged by flow cytometry. For experiments the cells were incubated for 24 h with supplemented RPMI1640 (pH 7.4) with 1 μg/mL lipopolysaccaride (LPS), interferon-gamma (γ-IFN) 200 U/mL (Sigma Aldrich, Stockholm, Sweden). The viability of cells was >95% in all incubations, as determined by Trypan blue exclusion.
Exposure of macrophages to oxidatively modified LDL. […] Protein concentration of lipoproteins was determined with the BioRad protein assay using γ-globulin as standard. […]

| Molecule | CEL expression at the protein level [1] | CEL expression at the mRNA level [2] |
| --- | --- | --- |
| lipopolysaccharide [LPS] | could not detect any consistent increase or decrease in CEL expression | could not detect any consistent increase or decrease in CEL expression |
| B1 | could not detect any consistent increase or decrease in CEL expression | could not detect any consistent increase or decrease in CEL expression |

Reference: patent publication US20080262108A1, “Method” (priority 2004, published 2008)
